The subject of series [1] is LN-18. The series can be described thus: Antimigratory activity against human LN-18 cells assessed as rate of cell migration measured at 100 uM by wound healing assay (reference value: 24.46 um/hr). In kind it is functional.
Series [2] concerns C6. The series can be described thus: Inhibition of AKT phosphorylation at Thr308 in rat C6 cells by Western blot analysis. The class given is cell-based. The conditions noted are these: dose 10-100 µM.
Series [3] has as its system C6. Description: Induction of apoptosis in rat C6 cells assessed as reduction in IRE1 expression at 10 to 100 uM by Western blot analysis. The class given is functional, cell-based. The note with it: dose 10-100 µM.
For series [4], the system named is C6. The series can be described thus: Induction of apoptosis in rat C6 cells assessed as cell population in […] at 50 to 100 uM (reference value: 2 to 7%). The class given is functional. The conditions noted are these: dose 50-100 µM.
Series [5] relates to C6. The series can be described thus: Inhibition of colony formation in rat C6 cells at 10 to 100 uM measured after 48 hrs by clonogenic assay. The class given is functional, cell-based. The note with it: dose 10-100 µM.
Series [6] deals with T1, Serine/threonine-protein kinase AKT (Homo sapiens) (UniProt P31751+Q9Y243+P31749). The series can be described thus: Inhibition of AKT phosphorylation at Thr308 in human LN-18 cells by Western blot analysis. The class given is cell-based. The conditions noted are these: dose 10-100 µM.
The test system of series [7] is LN-18. The series can be described thus: Inhibition of colony formation in human LN-18 cells at 10 to 100 uM measured after 48 hrs by clonogenic assay. The conditions noted are these: dose 10-100 µM. In kind it is functional, cell-based.
The subject of series [8] is LN-18. The series can be described thus: Induction of apoptosis in human LN-18 cells assessed as increase in Bax expression at 10 to 100 uM by Western blot analysis. The class given is functional, cell-based. The note with it: dose 10-100 µM.
The subject of series [9] is LN-18. Description: Inhibition of ERK phosphorylation in human LN-18 cells by Western blot analysis. The class given is cell-based. The conditions noted are these: dose 10-100 µM.
Series [10] deals with C6. The series can be described thus: Inhibition of AKT phosphorylation at Ser473 in rat C6 cells by Western blot analysis. The class given is cell-based. The note with it: dose 10-100 µM.
The target of series [11] is T1, Serine/threonine-protein kinase AKT (Homo sapiens). The series can be described thus: Inhibition of AKT phosphorylation at Ser473 in human LN-18 cells by Western blot analysis. The conditions noted are these: dose 10-100 µM. In kind it is cell-based.
The species named for a further series is Rattus norvegicus. Description: Inhibition of ERK phosphorylation in rat C6 cells by Western blot analysis. In kind it is cell-based. The conditions noted are these: dose 50-100 µM.
The test system of series [12] is LN-18. The series can be described thus: Cytotoxicity against human LN-18 cells assessed as cell viability measured upto 108 hrs by MTT assay. In kind it is functional, cell-based. The conditions noted are these: LN-18, 108 h.
The subject of series [13] is C6. Description: Induction of apoptosis in rat C6 cells assessed as reduction in XBP1 expression at 10 to 100 uM by Western blot analysis. In kind it is functional, cell-based. The note with it: dose 10-100 µM.
Series [14] has as its system C6. The series can be described thus: Induction of cell cycle arrest in rat C6 cells assessed as cell population in sub-G1 phase at 10 uM (reference value: 60%). The class given is functional.
In series [15] the test system is LN-18. The series can be described thus: Induction of cell cycle arrest in human LN-18 cells assessed as cell population in sub-G1 phase at 10 uM (reference value: 44%). In kind it is functional.
The test system of series [16] is C6. The series can be described thus: Antimigratory activity against rat C6 cells assessed as rate of cell migration measured at 100 uM by wound healing assay (reference value: 21.95 um/hr). The class given is functional.
Series [17] has as its system LN-18. Description: Induction of apoptosis in human LN-18 cells assessed as reduction in IRE1 expression at 10 to 100 uM by Western blot analysis. The class given is functional, cell-based. The note with it: dose 10-100 µM.
For series [18], the system named is LN-18. The series can be described thus: Induction of apoptosis in human LN-18 cells assessed as cell population in […] at 50 to 100 uM (reference value: 2 to 7%). The class given is functional. The note with it: dose 50-100 µM.
Series [19] relates to C6. Description: Cytotoxicity against rat C6 cells assessed as cell viability measured upto 108 hrs by MTT assay. The class given is functional, cell-based. The conditions noted are these: C6, 108 h.
Series [20] concerns LN-18. Description: Induction of apoptosis in human LN-18 cells assessed as reduction in XBP1 expression at 10 to 100 uM by Western blot analysis. The note with it: dose 10-100 µM. The class given is functional, cell-based.
The subject of series [21] is C6. The series can be described thus: Induction of apoptosis in rat C6 cells assessed as increase in Bax expression at 10 to 100 uM by Western blot analysis. The class given is functional, cell-based. The conditions noted are these: dose 10-100 µM.
Series [22] has as its system LN-18. Description: Induction of cell cycle arrest in human LN-18 cells assessed as cell population in G2-M phase at 10 uM (reference value: 39.4%). In kind it is functional.
Series [23] has as its system C6. Description: Induction of cell cycle arrest in rat C6 cells assessed as cell population in G2-M phase at 10 uM (reference value: 19.3%). In kind it is functional.
Series [24] in a line: Solubility in DMSO. In kind it is physicochemical.

The source made the active and inactive calls. No cut-off for these calls is given here.

T1 sequence (P31749 whole entry, looked up): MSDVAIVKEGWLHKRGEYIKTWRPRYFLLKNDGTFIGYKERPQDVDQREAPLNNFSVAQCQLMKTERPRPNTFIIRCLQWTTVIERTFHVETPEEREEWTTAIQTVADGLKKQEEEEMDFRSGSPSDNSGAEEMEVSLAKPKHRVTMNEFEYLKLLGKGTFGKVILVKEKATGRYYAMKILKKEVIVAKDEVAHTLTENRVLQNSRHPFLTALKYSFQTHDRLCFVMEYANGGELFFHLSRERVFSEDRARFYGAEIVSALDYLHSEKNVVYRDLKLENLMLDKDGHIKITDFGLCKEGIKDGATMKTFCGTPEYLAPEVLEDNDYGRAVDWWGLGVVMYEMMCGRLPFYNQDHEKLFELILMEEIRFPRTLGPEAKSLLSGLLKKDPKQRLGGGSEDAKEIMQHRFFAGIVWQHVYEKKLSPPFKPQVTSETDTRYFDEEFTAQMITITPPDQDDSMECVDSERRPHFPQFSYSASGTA
T1 sequence (P31751 whole entry, looked up): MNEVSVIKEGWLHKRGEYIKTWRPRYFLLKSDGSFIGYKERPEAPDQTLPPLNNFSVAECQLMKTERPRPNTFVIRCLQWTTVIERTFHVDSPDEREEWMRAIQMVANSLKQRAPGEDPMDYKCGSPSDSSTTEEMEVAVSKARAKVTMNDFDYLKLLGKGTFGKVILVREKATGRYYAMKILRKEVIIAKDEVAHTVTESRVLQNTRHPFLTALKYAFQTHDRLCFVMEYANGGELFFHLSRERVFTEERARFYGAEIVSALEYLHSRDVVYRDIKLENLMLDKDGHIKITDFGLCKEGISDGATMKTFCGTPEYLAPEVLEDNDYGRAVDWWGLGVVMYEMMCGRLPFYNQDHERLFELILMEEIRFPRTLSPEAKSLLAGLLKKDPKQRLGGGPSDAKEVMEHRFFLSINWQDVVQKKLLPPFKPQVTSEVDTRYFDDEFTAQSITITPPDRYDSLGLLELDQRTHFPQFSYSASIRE
T1 sequence (Q9Y243 whole entry, looked up): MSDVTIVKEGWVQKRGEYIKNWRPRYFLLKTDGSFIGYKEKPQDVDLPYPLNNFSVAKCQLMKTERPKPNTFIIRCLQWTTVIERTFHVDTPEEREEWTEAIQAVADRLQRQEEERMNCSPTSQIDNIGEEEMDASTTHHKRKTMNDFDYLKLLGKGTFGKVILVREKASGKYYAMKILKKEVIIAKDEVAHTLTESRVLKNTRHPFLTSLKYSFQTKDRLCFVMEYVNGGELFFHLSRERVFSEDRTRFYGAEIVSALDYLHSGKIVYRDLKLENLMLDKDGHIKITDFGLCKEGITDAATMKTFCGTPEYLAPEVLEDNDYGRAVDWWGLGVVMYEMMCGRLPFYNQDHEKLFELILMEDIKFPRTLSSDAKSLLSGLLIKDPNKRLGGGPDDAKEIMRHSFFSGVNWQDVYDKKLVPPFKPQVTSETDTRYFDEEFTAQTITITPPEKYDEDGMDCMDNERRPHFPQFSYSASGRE

In the case of `O=[N+]([O-])c1ccc(-c2csc3nc(/N=C/c4ccc(Cl)cc4)nn23)cc1`, the Activity in the series with LN-18 [1] is recorded as 15.04 um/hr; in the series with C6 [4], 35%; with C6 [14] it was 66.5%; with LN-18 [15], 50%; with C6 [16], 13.6 um/hr; with LN-18 [18], 35%. For the same molecule, the inhibition result (in the series on C6 [2]; in [6]; with LN-18 [9]; in the series with C6 [10]; in series [11]; in the series listed under Rattus norvegicus) was “Dose-Dependent Effect” each time. In addition, the outcome in the series on C6 [3], in the series with LN-18 [8], in the series on C6 [13], in the series on LN-18 [17], in the series on LN-18 [20] and in the series on C6 [21] was Active. For the same molecule, the inhibition entry in the series with C6 [5] and in the series on LN-18 [7] was “Active” each time. Further, the IC50 in the series with LN-18 [12] is 12.6 µM; with C6 [19], 8.74 µM.
As to `O=C1c2ccccc2C(=O)N1c1nc2scc(-c3ccc(Br)cc3)n2n1`, the Activity with LN-18 [1] came out at 14.36 um/hr; in the series with C6 [4], 47%; in the series on LN-18 [22] it was 54.9%; with C6 [16] it was 8.96 um/hr; in the series on LN-18 [18], 47%; in the series with C6 [23], 31.9%. The inhibition entry (in the series with C6 [2]; in [6]; in the series on LN-18 [9]; in the series with C6 [10]; in series [11]; in the series listed under Rattus norvegicus) was “Dose-Dependent Effect” throughout. Further, the result in the series with C6 [3], in the series with LN-18 [8], with C6 [13], with LN-18 [17], with LN-18 [20] and with C6 [21] was Active. The inhibition result with C6 [5] and with LN-18 [7] was “Active” in each case. In addition, the figures for the IC50 in the series with LN-18 [12] and with C6 [19] were 12.7 µM and 8.09 µM, respectively.
In the case of `O=C1c2ccccc2C(=O)N1c1nc2scc(-c3ccc(-c4ccccc4)cc3)n2n1`, the half-inhibitory concentration (IC50) in the series with LN-18 [12] came out at 8.97 µM; in the series on C6 [19] it was 5.79 µM. Further, the solubility entry in [24] was “Insoluble”.
For `COc1ccc(-c2csc3nc(/N=C/c4ccc(Cl)cc4Cl)nn23)cc1`, in that order: 21.5 µM, 7.56 µM and “Insoluble”.

The values above are taken from ChEMBL document CHEMBL5236625, “New class of fused [3,2-b][1,2,4]triazolothiazoles for targeting glioma in vitro” (Bioorg Med Chem Lett, 2023).
